Results on two compounds are retold here after patent US20210163453A1, “DERIVATIVES OF PAPAVERINE THAT ARE EFFECTIVE HYPOXIC TUMOR RADIOSENSITIZERS” (Ohio State Innovation Foundation, priority 2018, published 2021).

The test system of test [1] is EO771 tumors. The experiment in a line: Tumor growth delay of EO771 tumors with radiation (XRT). To be noted: for effect of drug before radiation on tumor growth delay (words): orthotopic EO771, 2 mg/kg 30-40 minutes before 5 Gy; for enhancement of tumor growth delay over XRT alone: orthotopic EO771, 2 mg/kg before 5 Gy. It is filed as in vivo, mice. Here is the method: (§1) P values were calculated against thigh muscle with two-tailed two-sample t test. FIG. 3B-3C show normalized tissue oxygenation in EO771 (b) or A549 (c) tumor-bearing mice after injection of 2 mg/kg PPV or vehicle saline (readings taken every minute, and curve is average of 5 traces). P value was analyzed by linear mixed model with autoregressive correlation structure at T=30-40 minutes. […] Values are mean area covered by pimonidazole-positive cells evaluated from 20 images per animal+−SEM. P value was calculated with two-tailed two-sample t test. […] Curves represent mean tumor volumes+−SEM. P values were calculated against XRT with two-tailed two-sample t test.
FIGS. 4A-4G show tumor growth before and after radiosensitization with PPV. FIG. 4A-4B show in vitro radiation survival assessment of A549 cell line treated with 10 μm PPV in normoxia (FIG. 4A) and anoxia (FIG. 4B). […] Values represent averaged colony counts+−standard deviation. […] Values are mean tumor volumes+−SEM. […] Values are mean tumor volumes+−SEM. FIG. 4E-4F show tumor growth delay. When tumors reached 4-fold volume increase, groups receiving no treatment or PPV only (FIG. 4E); and XRT only or PPV followed by XRT (FIG. 4F), tumor weights were compared. Values are mean tumor weights+−SEM (n=8). P values were calculated with two-tailed two-sample t test. FIG. 4G are related to FIG. 4E-4F tumor growth delay. Representative images of orthotopic EO771 tumors harvested on day 11 after treatment with XRT (top) or 2 mg/kg PPV followed by XRT (bottom). *P<0.05; **P<0.01; ***P<0.001; ****P<0.0001; n.s., not significant.
(§2) Bar graphs represent the mean area covered by pimonidazole-positive cells evaluated from 20 images per animal+−standard error of the mean. P value was calculated against control with two-tailed two-sample t test. […] Mean volumes+−SEM. P values were calculated against XRT with two-tailed two-sample t test. *P<0.05; **P<0.01; ***P<0.001; ****P<0.0001; n.s., not significant.
Tumor Growth kinetics. 2×10^6 EO771 or 5×10^6 A549 cells were injected s.c. into the flanks of 6-week old female immunocompetent C57/B6 (EO771) or immunocompromised nu/nu (A549) mice. Caliper measurements of opposing diameter were used to calculate the tumor volumes. Upon reaching […], the tumors were visualized by cone beam CT and treatment plans calculated using SARRP software. X-rays were delivered with a single beam delivering 5 Gy using the Small Animal Research Radiation Platform (SARRP, Xstrahl). Tumor volumes were measured until the post treatment volume increased 3-fold. Error bars represent standard deviation.
Both models of transplanted tumors that were used for the oxygenation experiments of papaverine's effect on radiation response in vivo were investigated. The murine breast cancer line EO771 that is syngeneic with the BL6 strain of mice was used and transplanted it orthotopically into the mammary fat pad of immune-competent mice. Also used was the human A549 lung adenocarcinoma line that was transplanted into the flank of immune-deficient mice. The breast cancers grew to approximately 150 mm^3 and were then randomized to receive either no treatment, a single dose of either 5 Gy, or papaverine at 2 mg/kg followed 30-40 minutes later by 5 Gy.

In the next test the test system is A549 cells. The experiment in a line: Seahorse OCR in A549 cells (dose response, IC50, washout). It counts as cell-based, Human.
Another test has as its system MP2 ODDluc tumors. The experiment in a line: ODD-luciferase in vivo oxygen reporter (bioluminescence imaging). To be noted: MP2 ODDluc tumors, 2 and 6 hours after drug. Further details: species or system mice. An excerpt: FIGS. 14A-14E summarize results obtained using ODD-luciferase as an in vivo oxygen reporter. […] (n=3-4, P<0.05).
Use of ODD-luciferase as an in vivo oxygen reporter. We have fused the oxygen dependent degradation domain (ODD) of the HIF1a protein to the luciferase reporter protein. This fusion protein is expressed in tumor cells and is stable and reports well in hypoxia, but is destroyed by cellular machinery when cells are well oxygenated (FIG. 14A). These cells were used to grow tumors in immune-deficient mice and the animals were exposed either 95% oxygen/5% CO2 (carbogen) or medical air and the tumor bioluminescence imaged by IVIS 30 minutes post injection. Increasing oxygen breathing decreases reporter signal (FIG. 14B). These animals were then treated with either papaverine or vehicle (FIG. 14C) or SMV32 or vehicle (FIG. 14E).

Test [2] has as its system EO771 tumors. Description: Pimonidazole staining, hypoxic fraction of EO771 tumors. It is filed as in vivo, mice. Here is the method:
as §1, §2
Pimonidazole staining. […] […] […] The hypoxic fraction of each tumor was quantified by thresholding signal at 50% of the maximum signal on control sections. Area covered by pimonidazole-positive cells was evaluated from 20 images per animal and averaged. Error bars represent the standard deviation.

The subject of the next test is cell lines of Table 1. Description: Cell lines tested for sensitivity to PPV (mitochondrial function). It is filed as cell-based, Human, Murine, Canine. Conditions: 29 cell lines: breast, colon, leukemia, lung, normal, osteosarcoma, pancreas, pharynx, tongue. Here is the method:
Seahorse analysis of the OCR. Oxygen consumption rate (OCR) was measured using Seahorse XF96 Flux Analyzer (Agilent Technologies). The cells were seeded to attach overnight, wells were washed with pre-warmed XF Calibrant (Agilent Technologies) and the replaced with unbuffered Assay Medium (pH 7.4, 5 mM glucose, 1 mM L-glutamine). The plates were incubated at 37° C. in a CO2-free incubator for 2 hours prior to assay. For succinate rescue assay, cells were permeabilized using XF Plasma Membrane Permeabilizer Reagent (XF PMP, Agilent Technologies) according to the manufacturer's instructions. The OCR rate was measured in 1× Mitochondrial Assay Solution (MAS) (70 mM sucrose, 220 mM mannitol, 10 mM KH2PO4, 5 mM MgCl2, 2 mM Hepes, 0.6% (w/v) fatty acid-free BSA and 1 mM EGTA; pH 7.4). After baseline oxygenation was established, 1 μM rotenone or 10 μM PPV was injected at time A, followed by 5 mM succinate at time B. Error bars represent standard deviation. For the washout experiment, EO771 cells were seeded overnight, then treated with 10 μM PPV or 1 μM rotenone 3 hours prior to OCR measurement. Media was replaced 1 and 2 hours before measurement and OCR reported.
PPV was tested in vitro to determine if it could decrease mitochondrial function in all cells tested in minutes at low micromolar concentrations (Table 1, FIG. 1A).

A word on the IC50: it is the concentration at which inhibition is half-maximal. With `COc1cc2ccnc(Cc3cccc4ccccc34)c2cc1OC` [SMV-32], the “growth delay compared to radiation alone” value with EO771 tumors [1] (heterotopic EO771 flank tumors, nude mice, 2 mg/kg 35 minutes prior to 5 Gy) was “activity that is comparable to papaverine”. The IC50 with A549 cells (Homo sapiens, A549 cells by Seahorse, n=5 replicates, read-out: mitochondrial IC50 (OCR IC50)) was determined as 7.4 µM. Further, the ODD-luciferase reporter signal entry in the test with MP2 ODDluc tumors is reported as “significant decrease in signal”. Also, the “tumor hypoxia by pimonidazole staining” value with EO771 tumors [2] (orthotopic EO771, immune-competent mice, 2 mg per kg) is reported as “decreased tumor hypoxia”.

Consider `COc1ccc(Cc2nccc3cc(OC)c(OC)cc23)cc1OC` [PPV, papaverine], for which the “effect of drug before radiation on tumor growth delay (words)” value with EO771 tumors [1] was “significantly adds to tumor growth delay”; in the test on EO771 tumors [1] (listed as papaverine), “significantly enhanced the antitumor effects of the radiation”. For the same compound, the “enhancement of tumor growth delay over XRT alone” value in the test with EO771 tumors [1] is listed as 2-4 fold; with EO771 tumors [1] (listed as papaverine), 1.9-2.8 fold. The “effect of single dose of drug alone on tumor growth” value in the test with EO771 tumors [1] (orthotopic EO771, 2 mg/kg, no XRT) is “no significant effect”. For the same compound, in the test with A549 cells (10 μM PPV, media replaced), the “time for OCR to return to baseline after drug removal (washout)” value is “less than one and one”. In addition, in the test on A549 cells (dose response analysis, A549), the “dose needed relative to rotenone for similar OCR inhibition” value is 100 × higher dose than rotenone. Further, the ODD-luciferase reporter signal result in the test with MP2 ODDluc tumors is “significant decrease in signal”. The “sensitivity to PPV” value in the test on cell lines of Table 1 is recorded as “List of cell lines positively tested for sensitivity to PPV”. In addition, in the test on EO771 tumors [2] (2 mg/kg PPV for one hour, pimonidazole), the “decrease in the hypoxic fraction of tumors” value was 72%.
